Columns and labels:
[1] = tested on: H460 cells; test: Cell invasion (Matrigel Transwell); type: cell-based, human; conditions: 100 nmol/L, 48 h
Experimental: Matrigel (basement membrane matrix) was thawed on crushed ice one night before and diluted with serum-free medium to a final concentration of 200-300 ug/mL. 100 uL of the diluted Matrigel was added to each upper chamber, let stand at 37° C. for 30 min, and the supernatant was aspirated. H460 cells with a cell density of more than 90% in 10 cm^2 dishes were digested and resuspended with 1 mL of serum-free medium and counted. 100,000 cells (100 uL) were plated in the upper chamber, and complete medium with 10% FBS was added to the lower chamber of each chamber. Transfection was performed after 12 h, and the groups (3 wells per group) were divided as follows: • blank control group: 20 uL of opti-MEM • negative control group (NC group) and experimental group: • A. 10 uL of opti-MEM and 0.2 uL of iMax were mixed well for 5 min • B. 10 uL of opti-MEM and 0.5 uL of small RNA (final concentration 100 nmol/L) were mixed well • C. solution A and solution B were mixed well and let stand for 15 min, and then was added to each well at a 20 uL system • Note: 100 uL of nuclease-free water was added to 2 nmol of small RNA dry powder for dissolution at a storage concentration of 20 umol/L
After 48 h, the medium in upper and lower chambers was discarded. The cells were fixed with paraformaldehyde at room temperature for 15 min, stained with 0.1% crystal violet at room temperature for 15 min, and rinsed with PBS. The cells in the upper chamber were gently wiped off with cotton swabs, and the chamber was dried. A Leica inverted microscope DMi8 was turned on, the 5× objective lens was selected, the parameters were adjusted and the white balance was performed following the manual. Each chamber was photographed, followed by counting and statistic processing.
1) Matrigel basement membrane matrix was thawed on crushed ice one night before and diluted with serum-free medium to a final concentration of 200-300 ug/mL. […] H460 cells with a cell density of more than 90% in 10 cm^2 dishes were digested and resuspended with 1 mL of serum-free medium and counted. […]

[2] = tested on: H460 cells; test: Apoptosis detection (Annexin V / PI); type: cell-based, human; conditions: 100 nmol/L, 48 h
Experimental: H460 cells with a cell density of more than 90% in 10 cm^2 dishes were plated in 12-well plates according to the cell growth rate, and transfected after 12 h, and the groups were divided as follows: • blank control group (4 wells): 200 uL of opti-MEM per well • negative control group (NC group) and experimental group (3 wells each): the system in each well was as follows • A. 100 uL of opti-MEM and 2 uL of iMax were mixed well for 5 min • B. 100 uL of opti-MEM and 5 uL of small RNA (final concentration 100 nmol/L) were mixed well • C. solution A and solution B were mixed well and let stand for 15 min, and then was added to each well at a 200 uL system • Note: 100 uL of nuclease-free water was added to 2 nmol of small RNA dry powder for dissolution at a storage concentration of 20 umol/L
The supernatant and cells were collected after 48 h and washed twice with pre-chilled PBS. The 4 tubes of cells in the blank control group were added respectively with: (1) 200 uL of 1× binding buffer; (2) 200 uL of 1× binding buffer and 5 uL of Annexin V stain; (3) 200 uL of 1× binding buffer and 5 uL of PI stain; (4) 200 uL of 1× binding buffer, 5 uL of Annexin V stain and 5 uL of PI stain. 200 uL of 1× binding buffer, 5 uL of Annexin V stain and 5 uL of PI stain were added to each tube of both the NC group and the experimental group. The mixture was mixed well and filtered through 300 mesh filters. The live cell population and the position of quadrant gate were selected according to the blank control group, and then the apoptosis of the NC group and the experimental group was detected. […]

Substance	cell invasion [1]	apoptosis [2]
MDM-sRNA-163: small RNA derived from Maytenus hookeri, sequence UGACUCUAGUCCGACUUUGUGAAAUGACU (listed as RNA, chemistry not given here)	inhibits	promotes
HQi-sRNA-2: small RNA derived from Scutellaria baicalensis, sequence AUGGUUCGAUUCCGGAGAGGG (listed as RNA, chemistry not given here)	inhibits	promotes
MDM-sRNA-39: small RNA derived from Maytenus hookeri, sequence GGGAUUGUAGUUCAAUUGGUCAGAGCACC (listed as RNA, chemistry not given here)	inhibits	promotes

Source: patent US20250302862A1, “SMALL RNA DRUG FOR INHIBITING ACTIVITY OF CANCER CELLS” (Institute of Basic Medical Sciences Chinese Academy of …, priority 2022, published 2025)
